What was measured:
Experiment in all cases: cells
[1] = test system: NEC8; assay type: functional, cell-based, Homo sapiens; conditions: Homo sapiens, NEC8;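 further: growth inhibition of human NEC8 cells, read out by a cell viability assay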
Description: SANGER: Inhibition of human NEC8 cell growth in a cell viability assay.

[2] = test system: PC-3; assay type: functional, cell-based, Homo sapiens; conditions: Homo sapiens, PC-3;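 further: cell viability assay measuring growth inhibition of PC-3 cells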
Description: SANGER: Inhibition of human PC-3 cell growth in a cell viability assay.

[3] = test system: ALL-PO; assay type: functional, cell-based; conditions: Homo sapiens;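 further: growth inhibition of ALL-PO cells, read out by a cell viability assay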
Description: SANGER: Inhibition of human ALL-PO cell growth in a cell viability assay.

[4] = test system: UACC-62; assay type: functional, cell-based, Homo sapiens; conditions: Homo sapiens, UACC-62;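 further: growth inhibition of human UACC-62 cells, read out by a cell viability assay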
Description: SANGER: Inhibition of human UACC-62 cell growth in a cell viability assay.

[5] = test system: EFO-27; assay type: functional, cell-based, Homo sapiens; conditions: Homo sapiens, EFO-27;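 further: growth inhibition of EFO-27 cells, read out with a cell viability assay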
Description: SANGER: Inhibition of human EFO-27 cell growth in a cell viability assay.

[6] = test system: SW626; assay type: functional, cell-based, Homo sapiens; conditions: Homo sapiens, SW626;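 further: growth inhibition of SW626 cells, measured with a cell viability assay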
Description: SANGER: Inhibition of human SW626 cell growth in a cell viability assay.

[7] = test system: K562; assay type: functional, cell-based; conditions: Homo sapiens
Description: SANGER: Inhibition of human K-562 cell growth in a cell viability assay.

[8] = test system: LU-139; assay type: functional, cell-based; conditions: Homo sapiens
Description: SANGER: Inhibition of human LU-139 cell growth in a cell viability assay.

[9] = test system: BE-13; assay type: functional, cell-based; conditions: Homo sapiens;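 further: growth inhibition of human BE-13 cells, measured with a cell viability assay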
Description: SANGER: Inhibition of human BE-13 cell growth in a cell viability assay.

[10] = test system: NB69; assay type: functional, cell-based, Homo sapiens; conditions: Homo sapiens, NB69;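 further: growth inhibition of NB69 cells, determined by a cell viability assay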
Description: SANGER: Inhibition of human NB69 cell growth in a cell viability assay.

[11] = test system: NCI-H1581; assay type: functional, cell-based, Homo sapiens; conditions: Homo sapiens, NCI-H1581;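 further: cell growth inhibition read out by a viability assay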
Description: SANGER: Inhibition of human NCI-H1581 cell growth in a cell viability assay.

[12] = test system: MDA-MB-453; assay type: functional, cell-based, Homo sapiens; conditions: Homo sapiens, MDA-MB-453
Description: SANGER: Inhibition of human MDA-MB-453 cell growth in a cell viability assay.

[13] = test system: EW-3; assay type: functional, cell-based; conditions: Homo sapiens;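 further: cell viability assay read-out, IC50 reflects inhibition of growth of the EW-3 cells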
Description: SANGER: Inhibition of human EW-3 cell growth in a cell viability assay.

[14] = test system: HT-1376; assay type: functional, cell-based, Homo sapiens; conditions: Homo sapiens, HT-1376
Description: SANGER: Inhibition of human HT-1376 cell growth in a cell viability assay.

[15] = test system: ETK-1; assay type: functional, cell-based, Homo sapiens; conditions: Homo sapiens, ETK-1;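 further: growth inhibition of human ETK-1 cells, read out with a cell viability assay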
Description: SANGER: Inhibition of human ETK-1 cell growth in a cell viability assay.

[16] = test system: NTERA-2-cl-D1; assay type: functional, cell-based, Homo sapiens; conditions: Homo sapiens, NTERA-2-cl-D1;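 further: inhibition of cell growth, measured with a cell viability assay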
Description: SANGER: Inhibition of human NTERA-S-cl-D1 cell growth in a cell viability assay.

[17] = test system: Detroit 562; assay type: functional, cell-based, Homo sapiens; conditions: Homo sapiens, Detroit 562;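 further: growth inhibition of human Detroit 562 cells, read out by a cell viability assay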
Description: SANGER: Inhibition of human Detroit562 cell growth in a cell viability assay.

[18] = test system: SW1463; assay type: functional, cell-based, Homo sapiens; conditions: Homo sapiens, SW1463;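 further: growth inhibition of SW1463 cells, determined with a cell viability assay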
Description: SANGER: Inhibition of human SW1463 cell growth in a cell viability assay.

[19] = test system: GCIY; assay type: functional, cell-based, Homo sapiens; conditions: Homo sapiens, GCIY;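 further: growth inhibition of the human GCIY cell line, read out by a cell viability assay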
Description: SANGER: Inhibition of human GCIY cell growth in a cell viability assay.

[20] = test system: HTC-C3; assay type: functional, cell-based, Homo sapiens; conditions: Homo sapiens, HTC-C3;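 further: inhibition of cell growth, read out with a cell viability assay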
Description: SANGER: Inhibition of human HTC-C3 cell growth in a cell viability assay.

[21] = test system: HSC-3; assay type: functional, cell-based, Homo sapiens; conditions: Homo sapiens, HSC-3
Description: SANGER: Inhibition of human HSC-3 cell growth in a cell viability assay.

[22] = test system: SCC-9; assay type: functional, cell-based, Homo sapiens; conditions: Homo sapiens, SCC-9;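 further: Read-out is a cell viability assay, with values giving inhibition of cell growth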
Description: SANGER: Inhibition of human SCC-9 cell growth in a cell viability assay.

[23] = test system: NCI-H596; assay type: functional, cell-based, Homo sapiens; conditions: Homo sapiens, NCI-H596;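 further: growth inhibition of NCI-H596 cells, read out with a cell viability assay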
Description: SANGER: Inhibition of human NCI-H596 cell growth in a cell viability assay.

[24] = test system: LB831-BLC; assay type: functional, cell-based, Homo sapiens; conditions: Homo sapiens, LB831-BLC;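 further: growth inhibition of LB831-BLC cells, read out with a cell viability assay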
Description: SANGER: Inhibition of human LB831-BLC cell growth in a cell viability assay.

[25] = test system: U-251; assay type: functional, cell-based, Homo sapiens; conditions: Homo sapiens, U-251;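 further: growth inhibition of human U-251 cells, read out through a cell viability assay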
Description: SANGER: Inhibition of human U251 cell growth in a cell viability assay.

[26] = test system: MDA-MB-157; assay type: functional, cell-based, Homo sapiens; conditions: Homo sapiens, MDA-MB-157
Description: SANGER: Inhibition of human MDA-MB-157 cell growth in a cell viability assay.

[27] = test system: SBC-1; assay type: functional, cell-based; conditions: Homo sapiens;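 further: cell viability assay measuring growth inhibition of the SBC-1 cell line, IC50 being the concentration that halves growth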
Description: SANGER: Inhibition of human SBC-1 cell growth in a cell viability assay.

[28] = test system: PSN1; assay type: functional, cell-based, Homo sapiens; conditions: Homo sapiens, PSN1;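 further: suppression of growth of human PSN1 cells, read out by a cell viability assay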
Description: SANGER: Inhibition of human PSN1 cell growth in a cell viability assay.

[29] = test system: HCC2157; assay type: functional, cell-based; conditions: Homo sapiens;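 further: growth inhibition of the cancer cell line, read out as cell viability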
Description: SANGER: Inhibition of human HCC2157 cell growth in a cell viability assay.

[30] = test system: C-33-A; assay type: functional, cell-based, Homo sapiens; conditions: Homo sapiens, C-33-A;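 further: cell viability assay measuring growth inhibition of C-33-A cells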
Description: SANGER: Inhibition of human C-33-A cell growth in a cell viability assay.

[31] = test system: BT-20; assay type: functional, cell-based, Homo sapiens; conditions: Homo sapiens, BT-20;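 further: cell viability assay measuring suppression of growth in human BT-20 cells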
Description: SANGER: Inhibition of human BT-20 cell growth in a cell viability assay.

[32] = test system: Hs-578T; assay type: functional, cell-based, Homo sapiens; conditions: Homo sapiens, Hs-578T
Description: SANGER: Inhibition of human Hs-578-T cell growth in a cell viability assay.

[33] = test system: SK-OV-3; assay type: functional, cell-based, Homo sapiens; conditions: Homo sapiens, SK-OV-3;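 further: growth inhibition of SK-OV-3 human cells, read out with a cell viability assay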
Description: SANGER: Inhibition of human SK-OV-3 cell growth in a cell viability assay.

[34] = test system: MDA-MB-231; assay type: functional, cell-based, Homo sapiens; conditions: Homo sapiens, MDA-MB-231
Description: SANGER: Inhibition of human MDA-MB-231 cell growth in a cell viability assay.

[35] = test system: NCI-H1838; assay type: functional, cell-based, Homo sapiens; conditions: Homo sapiens, NCI-H1838;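 further: growth inhibition of NCI-H1838 cells, determined with a cell viability readout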
Description: SANGER: Inhibition of human NCI-H1838 cell growth in a cell viability assay.

[36] = test system: A3-KAW; assay type: functional, cell-based; conditions: Homo sapiens;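 further: growth inhibition of human A3-KAW cells, read out with a cell viability assay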
Description: SANGER: Inhibition of human A3-KAW cell growth in a cell viability assay.

[37] = test system: MKN-1; assay type: functional, cell-based, Homo sapiens; conditions: Homo sapiens, MKN-1;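 further: growth inhibition of human MKN1 cells, read out by a cell viability measurement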
Description: SANGER: Inhibition of human MKN1 cell growth in a cell viability assay.

[38] = test system: T98G; assay type: functional, cell-based, Homo sapiens; conditions: Homo sapiens, T98G;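 further: growth inhibition of T98G cells, read out by a cell viability assay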
Description: SANGER: Inhibition of human T98G cell growth in a cell viability assay.

[39] = test system: A253 cell line; assay type: functional, cell-based, Homo sapiens; conditions: Homo sapiens, A253;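 further: growth inhibition of A253 cells, read out with a cell viability assay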
Description: SANGER: Inhibition of human A253 cell growth in a cell viability assay.

[40] = test system: BFTC-905; assay type: functional, cell-based, Homo sapiens; conditions: Homo sapiens, BFTC-905
Description: SANGER: Inhibition of human BFTC-905 cell growth in a cell viability assay.

[41] = test system: CAL-72; assay type: functional, cell-based, Homo sapiens; conditions: Homo sapiens, CAL-72;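 further: cell viability assay measuring inhibition of proliferation in the CAL-72 cell line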
Description: SANGER: Inhibition of human CAL-72 cell growth in a cell viability assay.

[42] = test system: HT-3; assay type: functional, cell-based, Homo sapiens; conditions: Homo sapiens, HT-3;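 further: growth inhibition measured with a cell viability readout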
Description: SANGER: Inhibition of human HT-3 cell growth in a cell viability assay.

[43] = test system: DU-145; assay type: functional, cell-based, Homo sapiens; conditions: Homo sapiens, DU-145
Description: SANGER: Inhibition of human DU-145 cell growth in a cell viability assay.

[44] = test system: SCC-15; assay type: functional, cell-based, Homo sapiens; conditions: Homo sapiens, SCC-15;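 further: growth inhibition of SCC-15 cells, read out with a cell viability assay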
Description: SANGER: Inhibition of human SCC-15 cell growth in a cell viability assay.

[45] = test system: CAL-85-1; assay type: functional, cell-based; conditions: Homo sapiens;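 further: growth inhibition of human CAL-85-1 cells, read out with a cell viability assay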
Description: SANGER: Inhibition of human CAL-85-1 cell growth in a cell viability assay.

[46] = test system: NCI-H441; assay type: functional, cell-based; conditions: Homo sapiens;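 further: growth inhibition of NCI-H441 cells, read out with a cell viability assay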
Description: SANGER: Inhibition of human NCI-H441 cell growth in a cell viability assay.

[47] = test system: OE19; assay type: functional, cell-based, Homo sapiens; conditions: Homo sapiens, OE19;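 further: growth inhibition of OE19 cells, measured through a cell viability read-out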
Description: SANGER: Inhibition of human OE19 cell growth in a cell viability assay.

[48] = test system: HCC1395; assay type: functional, cell-based, Homo sapiens; conditions: Homo sapiens, HCC1395;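 further: growth inhibition of HCC1395 cells, read out by a cell viability assay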
Description: SANGER: Inhibition of human HCC1395 cell growth in a cell viability assay.

[49] = test system: MV4-11; assay type: functional, cell-based, MV-4-11; conditions: Homo sapiens;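 further: cell viability readout measuring growth inhibition of human MV-4-11 cells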
Description: SANGER: Inhibition of human MV-4-11 cell growth in a cell viability assay.

[50] = test system: D-336MG; assay type: functional, cell-based, Homo sapiens; conditions: Homo sapiens, D-336MG
Description: SANGER: Inhibition of human D-336MG cell growth in a cell viability assay.

## COc1cc(F)c(F)c(Nc2ccc(I)cc2F)c1NS(=O)(=O)C1(CC(O)CO)CC1 (centres undefined)
[1]
  IC50: > 5 µM
[2]
  IC50: > 5 µM
[3]
  IC50: > 5 µM
[4]
  IC50: > 5 µM
[5]
  IC50: 0.962 µM
[6]
  IC50: 0.279 µM
[7]
  IC50: > 5 µM
[8]
  IC50: > 5 µM
[9]
  IC50: > 5 µM
[10]
  IC50: 0.557 µM
[11]
  IC50: > 5 µM
[12]
  IC50: > 5 µM
[13]
  IC50: 0.103 µM
[14]
  IC50: > 5 µM
[15]
  IC50: 4.24 µM
[16]
  IC50: > 5 µM
[17]
  IC50: > 5 µM
[18]
  IC50: 4.13 µM
[19]
  IC50: 1.18 µM
[20]
  IC50: 0.122 µM
[21]
  IC50: 0.307 µM
[22]
  IC50: > 5 µM
[23]
  IC50: > 5 µM
[24]
  IC50: > 5 µM
[25]
  IC50: > 5 µM
[26]
  IC50: > 5 µM
[27]
  IC50: > 5 µM
[28]
  IC50: 0.198 µM
[29]
  IC50: > 5 µM
[30]
  IC50: > 5 µM
[31]
  IC50: > 5 µM
[32]
  IC50: 1.76 µM
[33]
  IC50: > 5 µM
[34]
  IC50: 1.12 µM
[35]
  IC50: > 5 µM
[36]
  IC50: > 5 µM
[37]
  IC50: > 5 µM
[38]
  IC50: > 5 µM
[39]
  IC50: 3.32 µM
[40]
  IC50: 0.719 µM
[41]
  IC50: > 5 µM
[42]
  IC50: > 5 µM
[43]
  IC50: 1.06 µM
[44]
  IC50: > 5 µM
[45]
  IC50: 3.57 µM
[46]
  IC50: > 5 µM
[47]
  IC50: > 5 µM
[48]
  IC50: > 5 µM
[49]
  IC50: 0.812 µM

## O=C1N=C(NCc2cccs2)S/C1=C\c1ccc2ncccc2c1
[1]
  IC50: 4.47 µM
[2]
  IC50: > 5 µM
[3]
  IC50: 1.91 µM
[4]
  IC50: > 5 µM
[5]
  IC50: > 5 µM
[6]
  IC50: > 5 µM
[7]
  IC50: > 5 µM
[8]
  IC50: > 5 µM
[9]
  IC50: > 5 µM
[10]
  IC50: > 5 µM
[11]
  IC50: > 5 µM
[12]
  IC50: > 5 µM
[13]
  IC50: > 5 µM
[14]
  IC50: > 5 µM
[15]
  IC50: > 5 µM
[16]
  IC50: > 5 µM
[17]
  IC50: > 5 µM
[18]
  IC50: > 5 µM
[19]
  IC50: > 5 µM
[20]
  IC50: > 5 µM
[21]
  IC50: > 5 µM
[22]
  IC50: > 5 µM
[23]
  IC50: > 5 µM
[24]
  IC50: > 5 µM
[25]
  IC50: 1.64 µM
[26]
  IC50: > 5 µM
[27]
  IC50: > 5 µM
[28]
  IC50: 4.11 µM
[29]
  IC50: > 5 µM
[30]
  IC50: > 5 µM
[31]
  IC50: > 5 µM
[32]
  IC50: 2.28 µM
[33]
  IC50: > 5 µM
[34]
  IC50: > 5 µM
[35]
  IC50: > 5 µM
[36]
  IC50: > 5 µM
[37]
  IC50: > 5 µM
[50]
  IC50: > 5 µM
[38]
  IC50: 1.37 µM
[39]
  IC50: > 5 µM
[40]
  IC50: > 5 µM
[41]
  IC50: > 5 µM
[42]
  IC50: > 5 µM
[43]
  IC50: > 5 µM
[44]
  IC50: > 5 µM
[45]
  IC50: > 5 µM
[46]
  IC50: > 5 µM
[47]
  IC50: > 5 µM
[48]
  IC50: > 5 µM
[49]
  IC50: > 5 µM

Source: ChEMBL document CHEMBL1201861, “Genomics of Drug Sensitity in Cancer screening data, Wellcome Trust Sanger Institute”
